Consider 22 compounds from US20130184257A1, “PIPERIDINYL-SUBSTITUTED LACTAMS AS GPR119 MODULATORS” (priority 2010, published 2013).

This assay concerns modified version of the GPR119 receptor (94% identity to human receptor) stably expressed in HEK-293 cells. Nature of the assay: cAMP Production Assay (LANCE cAMP kit, TR-FRET). The class given is cell-based. Conditions: for cAMP production in HEK-293 cells: HEK-293 cells expressing modified GPR119, test compounds 0.2 nM to 10 μM, one-hour incubation at ambient temperature; for Fold over baseline: increase in cAMP relative to basal levels, 1.5-fold or greater = agonist activity. How it is done:
The assay utilized HEK-293 cells that stably express a modified version of the GPR119 receptor (94% identity to human receptor), under the control of a CMV promoter containing a tet-on element for tetracycline-inducible expression. GPR119 agonist-induced cyclic AMP (cAMP) production was measured in this cell line using the LANCE cAMP kit (Perkin Elmer, Waltham, Mass.). To generate a working stock of cells for the assay, cells were treated overnight with 1 μg/mL doxycycline at 37° C. in the presence of 5% CO2 to induce receptor expression. Cells were then harvested by enzymatic dissociation with 0.05% trypsin, resuspended in freezing medium (DMEM growth medium with 10% each of fetal bovine serum and DMSO), aliquoted and frozen at −80° C. On the day of the assay, frozen cells were thawed, washed 1× in PBS and resuspended in Hank's buffered salt solution (HBSS) containing 5 mM HEPES, 0.1% BSA and Alexa Fluor 647-conjugated anti-cAMP antibody (diluted 1:100). The cell suspension was then transferred to a Proxiplate Plus white 384-well assay plate (Perkin-Elmer) at 2000 cells/well. Test compounds at final concentrations ranging from 0.2 nM to 10 μM were added to the assay plate, followed by a one-hour incubation at ambient temperature (volume=10 μL/well). DMSO concentration was held constant at 0.5%. After incubation with test compounds, 10 μL of a detergent buffer containing a biotinylated cAMP/Europium-conjugated streptavidin complex (Europium-labeled cAMP tracer) were added to each well on the assay plate, followed by a 2-hour incubation at ambient temperature. During this incubation cAMP released from lysed cells competes with the Europium-labeled cAMP tracer for binding to the Alexa Fluor 647-conjugated antibody. […] Cellular cAMP levels were then determined by interpolation of raw signal data using a cAMP standard curve. Compounds were determined to have agonist activity if they stimulated a 1.5-fold or greater increase in cAMP relative to basal levels.
Background: In TR-FRET formats the signal depends on donor and acceptor labels being close together.

The structures appear in SMILES notation.

Turning to `CC(C)c1nc(N2CCC(N3CC[C@H](Oc4cc(F)c(S(C)(=O)=O)cc4F)C3=O)CC2)no1` [Example 19, (S)-3-(2,5-difluoro-4-(methylsulfonyl)phenoxy)-1-(1-(5-isopropyl-1,2,4-oxadiazol-3-yl)piperidin-4-yl)pyrrolidin-2-one], the “cAMP production in HEK-293 cells” value is 24.9 nmol and the Fold over baseline was found to be 4.1.
Turning to `CC(C)c1nc(N2CCC(N3CC[C@H](Oc4c(F)cc(S(C)(=O)=O)cc4F)C3=O)CC2)no1` [Example 20, (S)-3-(2,6-difluoro-4-(methylsulfonyl)phenoxy)-1-(1-(5-isopropyl-1,2,4-oxadiazol-3-yl)piperidin-4-yl)pyrrolidin-2-one], the “cAMP production in HEK-293 cells” value turned out to be 19.4 nmol and the Fold over baseline is 3.7.
`CS(=O)(=O)c1ccc(N[C@H]2CCN(C3CCN(c4noc(C(F)F)n4)CC3)C2=O)c(F)c1` [Example 21, (S)-1-(1-(5-(difluoromethyl)-1,2,4-oxadiazol-3-yl)piperidin-4-yl)-3-(2-fluoro-4-(methylsulfonyl)phenylamino)pyrrolidin-2-one]: the “cAMP production in HEK-293 cells” value was determined as 21.0 nmol and the Fold over baseline is given as 2.8.
Regarding `CS(=O)(=O)c1cc(F)c(N[C@H]2CCN(C3CCN(c4noc(C(F)(F)F)n4)CC3)C2=O)c(F)c1` [Example 22, (S)-3-(2,6-difluoro-4-(methylsulfonyl)phenylamino)-1-(1-(5-(trifluoromethyl)-1,2,4-oxadiazol-3-yl)piperidin-4-yl)pyrrolidin-2-one], the “cAMP production in HEK-293 cells” value is 17.6 nmol and the Fold over baseline is 3.6.
Regarding `CS(=O)(=O)c1cc(F)c(N[C@H]2CCN(C3CCN(c4noc(C(F)(F)F)n4)CC3)C2=O)cc1F` [Example 23, (S)-3-(2,5-difluoro-4-(methylsulfonyl)phenylamino)-1-(1-(5-(trifluoromethyl)-1,2,4-oxadiazol-3-yl)piperidin-4-yl)pyrrolidin-2-one], the “cAMP production in HEK-293 cells” value was 19.2 nmol and the Fold over baseline was determined as 3.6.
In the same order, the values of `CS(=O)(=O)c1ccc(O[C@H]2CCN(C3CCN(c4noc(C(F)(F)F)n4)CC3)C2=O)c(F)c1` [Example 24, (S)-3-(2-fluoro-4-(methylsulfonyl)phenoxy)-1-(1-(5-(trifluoromethyl)-1,2,4-oxadiazol-3-yl)piperidin-4-yl)pyrrolidin-2-one] are 81.6 nmol and 4.4.
Take `CS(=O)(=O)c1cc(F)c(N[C@H]2CCCN(C3CCN(c4noc(C(F)(F)F)n4)CC3)C2=O)cc1F` [Example 25, (S)-3-(2,5-difluoro-4-(methylsulfonyl)phenylamino)-1′-(5-(trifluoromethyl)-1,2,4-oxadiazol-3-yl)-1,4′-bipiperidin-2-one]: the “cAMP production in HEK-293 cells” value was found to be 49.0 nmol and the Fold over baseline is 2.9.
As for `CS(=O)(=O)c1cc(F)c(O[C@H]2CCN(C3CCN(c4noc(C(F)(F)F)n4)CC3)C2=O)cc1F` [Example 27, (S)-3-(2,5-difluoro-4-(methylsulfonyl)phenoxy)-1-(1-(5-(trifluoromethyl)-1,2,4-oxadiazol-3-yl)piperidin-4-yl)pyrrolidin-2-one], the “cAMP production in HEK-293 cells” value amounted to 98.9 nmol and the Fold over baseline came out at 5.1.
In the same order, the values of `CS(=O)(=O)c1cc(F)c(O[C@H]2CCN(C3CCN(c4noc(C(F)(F)F)n4)CC3)C2=O)c(F)c1` [Example 28, (S)-3-(2,6-difluoro-4-(methylsulfonyl)phenoxy)-1-(1-(5-(trifluoromethyl)-1,2,4-oxadiazol-3-yl)piperidin-4-yl)pyrrolidin-2-one] are 101.5 nmol and 5.0.
As to `CS(=O)(=O)c1ccc(N[C@H]2CCCN(C3CCN(c4noc(C(F)(F)F)n4)CC3)C2=O)c(F)c1` [Example 29, (S)-3-(2-fluoro-4-(methylsulfonyl)phenylamino)-1′-(5-(trifluoromethyl)-1,2,4-oxadiazol-3-yl)-1,4′-bipiperidin-2-one], the “cAMP production in HEK-293 cells” value is 47.6 nmol and the Fold over baseline turned out to be 3.0.
`CS(=O)(=O)c1cc(F)c(N[C@H]2CCN(C3CCN(c4noc(C(F)F)n4)CC3)C2=O)cc1F` [Example 30, (S)-3-(2,5-difluoro-4-(methylsulfonyl)phenylamino)-1-(1-(5-(difluoromethyl)-1,2,4-oxadiazol-3-yl)piperidin-4-yl)pyrrolidin-2-one]: the “cAMP production in HEK-293 cells” value stood at 7.5 nmol and the Fold over baseline was found to be 3.1.
With `CS(=O)(=O)c1cc(F)c(N[C@H]2CCN(C3CCN(c4noc(C(F)F)n4)CC3)C2=O)c(F)c1` [Example 31, (S)-3-(2,6-difluoro-4-(methylsulfonyl)phenylamino)-1-(1-(5-(difluoromethyl)-1,2,4-oxadiazol-3-yl)piperidin-4-yl)pyrrolidin-2-one], the “cAMP production in HEK-293 cells” value was determined as 4.9 nmol and the Fold over baseline turned out to be 2.3.
Turning to `CS(=O)(=O)c1cc(F)c(N[C@H]2CCCN(C3CCN(c4noc(C(F)F)n4)CC3)C2=O)c(F)c1` [Example 32, (S)-3-(2,6-difluoro-4-(methylsulfonyl)phenylamino)-1′-(5-(difluoromethyl)-1,2,4-oxadiazol-3-yl)-1,4′-bipiperidin-2-one], the “cAMP production in HEK-293 cells” value was found to be 7.9 nmol and the Fold over baseline was found to be 2.4.
As to `CS(=O)(=O)c1cc(F)c(N[C@H]2CCCN(C3CCN(c4noc(C(F)F)n4)CC3)C2=O)cc1F` [Example 33, (S)-3-(2,5-difluoro-4-(methylsulfonyl)phenylamino)-1′-(5-(difluoromethyl)-1,2,4-oxadiazol-3-yl)-1,4′-bipiperidin-2-one], the “cAMP production in HEK-293 cells” value is 10.1 nmol and the Fold over baseline is 2.5.
As to `CCS(=O)(=O)c1ccc(N[C@H]2CCN(C3CCN(c4noc(C(F)(F)F)n4)CC3)C2=O)c(F)c1` [Example 34, (S)-3-(4-(ethylsulfonyl)-2-fluorophenylamino)-1-(1-(5-(trifluoromethyl)-1,2,4-oxadiazol-3-yl)piperidin-4-yl)pyrrolidin-2-one], the “cAMP production in HEK-293 cells” value was 7.3 nmol and the Fold over baseline is 2.8.
For `CS(=O)(=O)c1ccc(N[C@H]2CCN(C3CCN(c4noc(CC(F)(F)F)n4)CC3)C2=O)c(F)c1` [Example 36, (S)-3-(2-fluoro-4-(methylsulfonyl)phenylamino)-1-(1-(5-(2,2,2-trifluoroethyl)-1,2,4-oxadiazol-3-yl)piperidin-4-yl)pyrrolidin-2-one], the “cAMP production in HEK-293 cells” value was determined as 9.9 nmol and the Fold over baseline turned out to be 4.3.
In the same order, the values of `CCCc1nc(N2CCC(N3CC[C@H](Nc4ccc(S(C)(=O)=O)cc4F)C3=O)CC2)no1` [Example 37] are 12.2 nmol and 3.7.
On to `CS(=O)(=O)c1ccc(N[C@H]2CCN(C3CCN(c4noc(-c5ccccn5)n4)CC3)C2=O)c(F)c1` [Example 38, (S)-3-(2-fluoro-4-(methylsulfonyl)-phenylamino)-1-(1-(5-(pyridin-2-yl)-1,2,4-oxadiazol-3-yl)piperidin-4-yl)pyrrolidin-2-one], for which the “cAMP production in HEK-293 cells” value came to 9.0 nmol and the Fold over baseline came out at 3.5.
In the case of `CC(C)(c1nc(N2CCC(N3CC[C@H](Nc4ccc(S(C)(=O)=O)cc4F)C3=O)CC2)no1)C(F)(F)F` [Example 39, (S)-3-(2-fluoro-4-(methylsulfonyl)-phenylamino)-1-(1-(5-(1,1,1-trifluoro-2-methylpropan-2-yl)-1,2,4-oxadiazol-3-yl)piperidin-4-yl)pyrrolidin-2-one], the “cAMP production in HEK-293 cells” value is 8.7 nmol and the Fold over baseline was 2.9.
Consider `CS(=O)(=O)c1ccc(N[C@H]2CCN(C3CCN(c4noc(C5CCC5)n4)CC3)C2=O)c(F)c1` [Example 40, (S)-1-(1-(5-cyclobutyl-1,2,4-oxadiazol-3-yl)piperidin-4-yl)-3-(2-fluoro-4-(methylsulfonyl)-phenylamino)pyrrolidin-2-one], for which the “cAMP production in HEK-293 cells” value turned out to be 17.5 nmol and the Fold over baseline worked out at 5.7.
`CC[C@H](C)c1nc(N2CCC(N3CC[C@H](Nc4ccc(S(C)(=O)=O)cc4F)C3=O)CC2)no1` [Example 41, (S)-1-(1-(5-sec-butyl-1,2,4-oxadiazol-3-yl)piperidin-4-yl)-3-(2-fluoro-4-(methylsulfonyl)phenylamino)-pyrrolidin-2-one]: the “cAMP production in HEK-293 cells” value was found to be 15.9 nmol and the Fold over baseline is reported as 4.0.
Turning to `CC(C)(F)c1nc(N2CCC(N3CC[C@H](Nc4ccc(S(C)(=O)=O)cc4F)C3=O)CC2)no1` [Example 42, (S)-3-(2-fluoro-4-(methylsulfonyl)-phenylamino)-1-(1-(5-(2-fluoropropan-2-yl)-1,2,4-oxadiazol-3-yl)piperidin-4-yl)pyrrolidin-2-one], the “cAMP production in HEK-293 cells” value is 12.5 nmol and the Fold over baseline is on record as 5.1.
